Laboratory results: patent US20100285139A1, “PHARMACEUTICAL COMPOSITION FOR THE PROPHYLAXIS AND/OR SYMPTOMATIC TREATMENT OF CYSTIC FIBROSIS” (CYCNAD GMBH & CO., KG, priority 2007, published 2010)

Test system: Pseudomonas aeruginosa
Experiment: Susceptibility to infection: Pseudomonas aeruginosa bacterial count in the lung after intranasal infection
Format: in vivo, mice
Experimental: The bacteria were cultured for 14 to 14.5 hours on TSA agar plates (Becton Dickinson). Fresh plates were used for at most 2 weeks for this. The bacteria were then transferred to Erlenmeyer flasks in 40 ml of a prewarmed and sterile buffer (TSB, Becton Dickinson). The optical density (OD) or extinction was adjusted to 0.225 (corresponds to 5.5×10^8 CFU/ml) and the bacteria were incubated for 60 minutes at 37° C. with shaking at 125 rpm. The quality of the agar plates and of TSB and the shaking speed were crucial for the obtainment of reproducible results. In this way, it was possible to obtain a Pseudomonas aeruginosa population exactly in the early log phase (the bacteria replicated approximately by 10-fold within an incubation time of 60 minutes). The fact that the bacteria were bacteria of the early log phase was extremely important to obtain reproducible conditions for the subsequent infection with the experimental animals. The bacteria were centrifuged at 2800 rpm (1600×g) in a 50 ml tube. The supernatant was then carefully removed and the bacteria were resuspended in 10 ml of RPMI-1640, supplemented with 10 mM HEPES (pH 7.3). The suspension was transferred to a 15 ml tube and subsequently washed twice. Finally, the bacteria were resuspended in prewarmed HEPES/salt (HS; 132 mM NaCl, 20 mM HEPES (pH 7.4), 5 mM KCl, 1 mM CaCl2, 0.7 mM MgCl2, 0.8 mM MgSO4) and the bacterial optical density was determined. The bacteria were then diluted with prewarmed H/S to a concentration of 10^8 CFU/20 μl . The mice were then infected within the next 10 minutes. For this purpose, a syringe with a volume of 1 ml and a 30 gauge needle was used. The mice were anesthetized in ether for 10 to 15 seconds. Following this, the needle was immediately inserted 2 mm into the noses of the mice and the bacteria were carefully injected. Between the first and the last mouse which were infected, a time interval of at most 10 minutes was allowed to pass to avoid variations in the formation of viable bacterial colonies in this way. […] Subsequently, the number of bacteria in the lung was measured as a measure of the sensitivity of the mice to developing a Pseudomonas aeruginosa infection. […] The bacterial colonies were counted after 15 hours growth at 37° C. as a measure of the number of pulmonary bacteria and thus as a measure of an infection.
Wild-type mice and Cftr-deficient mice were inhaled with a solution of 4 mg/l of amitriptyline, 12.5 mg/l of trimipramine, 9 mg/l of desipramine, 8 mg/l of chlorprothixene, 4.5 mg/l of fluoxetine, 5 mg/l of amlodipine and 35 mg/l of sertraline. […] The lungs were removed from the experimental animals 60 minutes after the inhalation, and the susceptibility to infection of the experimental animals in relation to Pseudomonas aeruginosa was determined. […]

CN(C)CCC=C1c2ccccc2CCc2ccccc21 [amitriptyline]
bacterial count in the lungs (Cftr-deficient mice, treated by inhalation (4 mg/l solution), 2 h after intranasal infection with 1×10^8 CFU P. aeruginosa strain 762): 12300±4075 CFU
bacterial count in the lungs (Cftr-deficient mice, treated by injection solution (250 micrograms i.p.), 2 h after intranasal infection): 11250±2360 CFU
bacterial count in the lungs (wild-type mice, treated by inhalation (4 mg/l solution), 2 h after intranasal infection with 1×10^8 CFU P. aeruginosa strain 762): 3600±2892 CFU
bacterial count in the lungs (wild-type mice, treated by injection solution (250 micrograms i.p.), 2 h after intranasal infection): 2780±1740 CFU
